Structures are written as SMILES. A value given as a limit tells only on which side of the number the result lay.

The assay concerns PGE2/EP4 signal transduction in MCF7 cells. The assay is described as follows: Determination of MCF7 cAMP (PGE2-stimulated, HTRF). The format is cell-based. The conditions noted are these: Homo sapiens; MCF7 cells, 10 nM PGE2 stimulation, cAMP HTRF; read-out: MCF7 cAMP IC50. Here is the method:
• a) MCF7 cells (ATCC, 6000 cells/well/40 μl) were inoculated into a 384-well cell culture plate containing a medium (DMEM containing 10% FBS and 1×PS), and incubated overnight at 37° C. and 5% CO2. • b) The medium was removed, 40 μl/well of serum-free medium was added, and the cells were incubated at 37° C. and 5% CO2 for 5 hours. • c) The medium was replaced with 18 μL/well of HBSS buffer (Hepes 20 mM, 0.1% BSA, 500 μM IBMX). • d) The compound in DMSO was diluted (1/5 dilution, 9+0 dose). • e) 2 μL of the compound in d) was added to 98 μL of HBSS buffer. • f) 1 μL/well of the diluted compound in e) was added to the cells, with a final starting concentration of 1 μM, and the cells were incubated at 37° C. for 1 hour. • g) The cells were stimulated with 1 μL/well of PGE2 (10 mM DMSO stock solution) (final concentration: 10 nM, and DMSO final concentration: 0.2%), and incubated at 37° C. for 30 minutes. • h) After the incubation, 10 μL/well of cAMP-d2 and 10 μL/well of anti-cAMP were added, RT 1 h. • i) HTRF signals (665 nm/615 nm) were read on Envision. Data Analysis: • High control: 1 μM E7046 • Low control: DMSO • Background: 30 μL/well of lysis buffer+10 μL/well of anti-cAMP • Analytical data: original date—background Inhibition %: 100−100×(high control−analytical data)/(high control−low control)
Background: TR-FRET usually uses a lanthanide donor and a delayed reading to cut background.
Turning to `CC(NC(=O)c1cccc2ccn(Cc3cc4ccccc4o3)c12)C12CC(C(=O)O)(C1)C2` (racemic) [Compound 20, 3-(1-(1-(Benzofuran-2-ylmethyl)-1H-indole-7-carboxamido)ethyl)bicyclo[1.1.1]pentane-1-carboxylic acid], the IC50 – broadly, the point on the concentration scale where inhibition reaches its midpoint – stood at 34 nM.
Under `CC(NC(=O)c1cncc2ccn(Cc3cc4ccccc4o3)c12)C12CC(C(=O)O)(C1)C2` (racemic) [Compound 26, 3-(1-(1-(Benzofuran-2-ylmethyl)-1H-pyrrolo[3,2-c]pyridine-7-carboxamido)ethyl)bicyclo[1.1.1]pentane-1-carboxylic acid] stands 60 nM.
In the case of `O=C(NC1(C23CC(C(=O)O)(C2)C3)CC1)c1cccc2ccn(Cc3ccc4ccccc4n3)c12` [Compound 3, 3-(1-(1-(Quinolin-2-ylmethyl)-1H-indole-7-carboxamido)cyclopropyl)bicyclo[1.1.1]pentane-1-carboxylic acid] it was 7.8 nM.
Under `O=C(NC1(C23CC(C(=O)O)(C2)C3)CC1)c1cccc2ccn(Cc3ccc(Cl)cc3)c12` [Compound 4, 3-(1-(1-(4-Chlorobenzyl)-1H-indole-7-carboxamido)cyclopropyl)bicyclo[1.1.1]pentane-1-carboxylic acid] stands 61 nM; under `O=C(NC1(C23CC(C(=O)O)(C2)C3)CC1)c1cccc2ccn(Cc3ccc(-c4ccccc4)nc3)c12` [Compound 5, 3-(1-(1-((6-Phenylpyridin-3-yl)methyl)-1H-indole-7-carboxamido)cyclopropyl)bicyclo[1.1.1]pentane-1-carboxylic acid], 5.5 nM; under `O=C(NC1(C23CC(C(=O)O)(C2)C3)CC1)c1cc(Cl)cc2ccn(Cc3ccc(C(F)(F)F)cc3)c12` [Compound 8, 3-(1-(5-Chloro-1-(4-(trifluoromethyl)benzyl)-1H-indole-7-carboxamido)cyclopropyl)bicyclo[1.1.1]pentane-1-carboxylic acid], 2.9 nM.
On to `O=C(NC1(C23CC(C(=O)O)(C2)C3)CC1)c1cccc2ccn(Cc3ccc(N4CCOCC4)cn3)c12` [Compound 10, 3-(1-(1-((5-Morpholinopyridin-2-yl)methyl)-1H-indole-7-carboxamido)cyclopropyl)bicyclo[1.1.1]pentane-1-carboxylic acid], for which the half-inhibitory concentration (IC50) turned out to be 72 nM.
Take `O=C(NC1(C23CC(C(=O)O)(C2)C3)CC1)c1cccc2ccn(Cc3ccc(-c4ccccn4)cn3)c12` [Compound 11, 3-(1-(1-([2,3′-Bipyridin]-6′-ylmethyl)-1H-indole-7-carboxamido)cyclopropyl)bicyclo[1.1.1]pentane-1-carboxylic acid]: the IC50 stood at 30 nM.
Under `O=C(NC1(C23CC(C(=O)O)(C2)C3)CC1)c1cccc2ccn(Cc3ccc(-c4cccnc4)cn3)c12` [Compound 12, 3-(1-(1-([3,3′-Bipyridin]-6-ylmethyl)-1H-indole-7-carboxamido)cyclopropyl)bicyclo[1.1.1]pentane-1-carboxylic acid] stands 62.9 nM; under `O=C(NC1(C23CC(C(=O)O)(C2)C3)CC1)c1cccc2ccn(Cc3ccc(-c4ccncc4)cn3)c12` [Compound 13, 3-(1-(1-([3,4′-Bipyridin]-6-ylmethyl)-1H-indole-7-carboxamido)cyclopropyl)bicyclo[1.1.1]pentane-1-carboxylic acid], 11.5 nM; under `Cn1cc(-c2ccc(Cn3ccc4cccc(C(=O)NC5(C67CC(C(=O)O)(C6)C7)CC5)c43)nc2)cn1` [Compound 14, 3-(1-(1-((5-(1-Methyl-1H-pyrazol-4-yl)pyridin-2-yl)methyl)-1H-indole-7-carboxamido)cyclopropyl)bicyclo[1.1.1]pentane-1-carboxylic acid], 24.4 nM.
Under `O=C(NC1(C23CC(C(=O)O)(C2)C3)CC1)c1cccc2ccn(Cc3ccc(-c4cn[nH]c4)cn3)c12` [Compound 15, 3-(1-(1-((5-(1H-Pyrazol-4-yl)pyridin-2-yl)methyl)-1H-indole-7-carboxamido)cyclopropyl) bicyclo[1.1.1]pentane-1-carboxylic acid] stands 14.5 nM; under `O=C(NC1(C23CC(C(=O)O)(C2)C3)CC1)c1cccc2ccn(Cc3ccc(-c4cnn(CCCO)c4)cn3)c12` [Compound 16, 3-(1-(1-((5-(1-(3-Hydroxypropyl)-1H-pyrazol-4-yl)pyridin-2-yl)methyl)-1H-indole-7-carboxamido)cyclopropyl)bicyclo[1.1.1]pentane-1-carboxylic acid], 215 nM.
On to `O=C(NC1(C23CC(C(=O)O)(C2)C3)CC1)c1cccc2ccn(Cc3ccc(N4CCCC(O)C4)cn3)c12` (centres unmarked) [Compound 17, 3-(1-(1-((5-(3-Hydroxypiperidin-1-yl)pyridin-2-yl)methyl)-1H-indole-7-carboxamido)cyclopropyl)bicyclo[1.1.1]pentane-1-carboxylic acid], for which the IC50 came out at 35 nM.
Under `O=C(NC1(C23CC(C(=O)O)(C2)C3)CC1)c1cccc2ccn(Cc3ccc(C4CC4)cn3)c12` [Compound 18, 3-(1-(1-((5-Cyclopropylpyridin-2-yl)methyl)-1H-indole-7-carboxamido)cyclopropyl)bicyclo[1.1.1]pentane-1-carboxylic acid] stands 62.9 nM; under `O=C(NC1(C23CC(C(=O)O)(C2)C3)CC1)c1cccc2ccn(Cc3ccc(-c4ccccc4CO)cn3)c12` [Compound 19, 3-(1-(1-((5-(2-(Hydroxymethyl)phenyl)pyridin-2-yl)methyl)-1H-indole-7-carboxamido)cyclopropyl)bicyclo[1.1.1]pentane-1-carboxylic acid], 106 nM; under `C[C@H](NC(=O)c1cccc2ccn(Cc3cc4ccccc4o3)c12)C12CC(C(=O)O)(C1)C2` [Compound 20-5, (S)-3-(1-(1-(benzofuran-2-ylmethyl)-1H-indole-7-carboxamido)ethyl)bicyclo[1.1.1]pentane-1-carboxylic acid], 14 nM.
On to `C[C@@H](NC(=O)c1cccc2ccn(Cc3cc4ccccc4o3)c12)C12CC(C(=O)O)(C1)C2` [Compound 20-6, (R)-3-(1-(1-(benzofuran-2-ylmethyl)-1H-indole-7-carboxamido)ethyl)bicyclo[1.1.1]pentane-1-carboxylic acid], for which the IC50 is 78 nM.
As to `O=C(NC1(C23CC(C(=O)O)(C2)C3)CC1)c1cccc2ccn(Cc3cc4ccc(F)cc4o3)c12` [Compound 22, 3-(1-(1-((6-Fluorobenzofuran-2-yl)methyl)-1H-indole-7-carboxamido)cyclopropyl)bicyclo[1.1.1]pentane-1-carboxylic acid], the IC50 came out at 1.4 nM.
As to `O=C(NC1(C23CC(C(=O)O)(C2)C3)CC1)c1cccc2ccn(Cc3nc4ccccc4o3)c12` [Compound 23, 3-(1-(1-(Benzo[d]oxazol-2-ylmethyl)-1H-indole-7-carboxamido)cyclopropyl)bicyclo[1.1.1]pentane-1-carboxylic acid], the IC50 is 8 nM.
In the case of `O=C(NC1(C23CC(C(=O)O)(C2)C3)CC1)c1cccc2ccn(Cc3nc4ccccc4s3)c12` [Compound 24, 3-(1-(1-(Benzo[d]thiazol-2-ylmethyl)-1H-indole-7-carboxamido)cyclopropyl)bicyclo[1.1.1]pentane-1-carboxylic acid], the half-inhibitory concentration (IC50) was determined as 12 nM.
Take `C[C@H](NC(=O)c1cncc2ccn(Cc3cc4ccccc4o3)c12)C12CC(C(=O)O)(C1)C2` [Compound 26-1, (S)-3-(1-(1-(benzofuran-2-ylmethyl)-1H-pyrrolo[3,2-c]pyridine-7-carboxamido)ethyl)bicyclo[1.1.1]pentane-1-carboxylic acid]: the half-maximal inhibitory concentration (IC50) was determined as 30 nM.
In the case of `C[C@@H](NC(=O)c1cncc2ccn(Cc3cc4ccccc4o3)c12)C12CC(C(=O)O)(C1)C2` [Compound 26-2, (R)-3-(1-(1-(benzofuran-2-ylmethyl)-1H-pyrrolo[3,2-c]pyridine-7-carboxamido)ethyl)bicyclo[1.1.1]pentane-1-carboxylic acid] it was over 100 nM; in that of `O=C(NC1(C23CC(C(=O)O)(C2)C3)CC1)c1cncc2ccn(Cc3cc4cc(F)ccc4o3)c12` [Compound 27, 3-(1-(1-((5-Fluorobenzofuran-2-yl)methyl)-1H-pyrrolo[3,2-c]pyridine-7-carboxamido)cyclopropyl)bicyclo[1.1.1]pentane-1-carboxylic acid], 1.2 nM; in that of `O=C(NC1(C23CC(C(=O)O)(C2)C3)CC1)c1cncc2ccn(Cc3cc4cc(C(F)(F)F)ccc4o3)c12` [Compound 28, 3-(1-(1-((5-(Trifluoromethyl)benzofuran-2-yl)methyl)-1H-pyrrolo[3,2-c]pyridine-7-carboxamido)cyclopropyl)bicyclo[1.1.1] pentane-1-carboxylic acid], 1.5 nM.
For `[2H]C(c1cc2ccccc2o1)n1ccc2cccc(C(=O)NC3(C45CC(C(=O)O)(C4)C5)CC3)c21` (centres unmarked) [Compound 29, 3-(1-(1-(Benzofuran-2-ylmethyl-d)-1H-indole-7-carboxamido)cyclopropyl)bicyclo[1.1.1]pentane-1-carboxylic acid], the IC50 amounted to 1.5 nM.

For the origin of these results see patent publication US12240812B2, “Compound for inhibiting PGE2/EP4 signaling transduction inhibiting, preparation method therefor, and medical uses thereof” (Keythera (Suzhou) Pharmaceuticals Co. Ltd., priority 2019, dated 2025).
